For orientation: IC50 means the midpoint of a concentration-inhibition curve.

Where only a bound is given, the exact number is not on record here.

IC50 data for 25 molecules are collected here from patent publication US20230279020A9, “CARM1 INHIBITORS AND USES THEREOF” (Epizyme, Inc., priority 2013, published 2023).

The experiment deals with Human CARM1 (PRMT4) (Homo sapiens (Human), UniProt Q86X55). The experiment in a line: CARM1 enzyme assay on peptide substrate (3H-SAM Flashplate). The conditions noted are these: Biochemical potencies, classification codes; read-out: Biochem IC50.
Chain of Human CARM1 (PRMT4) (Q86X55 other isoform, or with tags, fused parts or gaps isoform Q86X55-1): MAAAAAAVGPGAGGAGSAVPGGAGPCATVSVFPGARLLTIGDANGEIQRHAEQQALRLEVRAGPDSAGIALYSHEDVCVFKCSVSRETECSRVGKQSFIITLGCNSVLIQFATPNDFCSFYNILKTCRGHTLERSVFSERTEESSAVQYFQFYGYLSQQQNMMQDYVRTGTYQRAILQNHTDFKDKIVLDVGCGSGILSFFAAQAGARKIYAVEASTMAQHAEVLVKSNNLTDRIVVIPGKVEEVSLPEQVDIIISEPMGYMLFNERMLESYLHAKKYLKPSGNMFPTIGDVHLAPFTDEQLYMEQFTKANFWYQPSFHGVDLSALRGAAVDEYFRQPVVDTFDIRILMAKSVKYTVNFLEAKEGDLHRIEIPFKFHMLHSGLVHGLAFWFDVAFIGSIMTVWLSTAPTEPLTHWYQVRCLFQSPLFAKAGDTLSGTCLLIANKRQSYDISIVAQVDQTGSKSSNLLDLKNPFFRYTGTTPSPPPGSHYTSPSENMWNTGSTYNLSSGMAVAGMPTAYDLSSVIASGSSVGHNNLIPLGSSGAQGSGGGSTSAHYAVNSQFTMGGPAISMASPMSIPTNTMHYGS
On to `CNC[C@H](O)COc1ccc(Cl)c(-c2nc(-c3c(C)noc3C)c(C)c(N3Cc4cc(Cl)cnc4C3)n2)c1` [Example 87-3], for which the IC50 is less than 100 nM. Turning to `CNCC(O)COc1cccc(-c2nc(NCC3CCOCC3)c(C)c(-c3c(C)noc3C)n2)c1` (stereo not shown) [Example 88-1a], the IC50 was less than 100 nM. Regarding `CCOC(=O)N1CCC(Nc2nc(-c3cc(OC[C@H](O)CNC)ccc3Cl)nc(-c3c(C)noc3C)c2C)CC1` [Example 88-3], the half-inhibitory concentration (IC50) was less than 100 nM. For the molecule `CNCC(O)COc1cccc(-c2nc(-c3c(C)noc3C)c(C)c(N(C)C3CCN(C(=O)OC)CC3)n2)c1` (stereo not shown) [Example 89-1a], the IC50 is less than 100 nM. Turning to `CNC[C@H](O)COc1ccc(Cl)c(-c2nc(NC3CCN(C(=O)OC)CC3)c(C)c(-c3c(C)noc3C)n2)c1` [Example 89-3], the IC50 is less than 100 nM. Regarding `CNCC(O)COc1cccc(-c2nc(-c3c(C)noc3C)cc(N(C)C3CCN(C(=O)OC)CC3)n2)c1` (stereo not shown) [Example 90-1a], the half-inhibitory concentration (IC50) was less than 100 nM. As to `CNC[C@H](O)COc1ccc(Cl)c(-c2nc(-c3c(C)noc3C)c(C)c(N3Cc4ccncc4C3)n2)c1` [Example 90-3], the IC50 is less than 100 nM.

Turning to `CNCC(O)COc1cccc(-c2nc(-c3c(C)noc3C)cc(N3CCN(C(=O)N(C)C)[C@@H](C)C3)n2)c1` (stereo partly shown) [Example 91-1a], the IC50 is less than 100 nM. The result for `CNC[C@H](O)COc1ccc(F)c(-c2nc(-c3c(C)noc3C)c(C)c(N3Cc4cccnc4C3)n2)c1` [Example 91-3] reads less than 100 nM; that for `CNCC(O)COc1cccc(-c2nc(-c3c(C)noc3C)cc(N3CCN(S(C)(=O)=O)[C@@H](C)C3)n2)c1` (stereo partly shown) [Example 92-1a], less than 100 nM. For `CNC[C@H](O)COc1ccc(Cl)c(-c2nc(-c3c(C)noc3C)c(C)c(N3Cc4cccnc4C3)n2)c1` [Example 92-3], the IC50 was less than 100 nM. Turning to `CNCC(O)COc1cccc(-c2nc(-c3c(C)noc3C)cc(N3CCN(C)[C@@H](C)C3)n2)c1` (stereo partly shown) [Example 93-1a], the IC50 was less than 100 nM. With `CCOC(=O)N1CCOC[C@@H]1CNc1nc(-c2cc(OCC(O)CNC)ccc2Cl)nc(-c2c(C)nsc2C)c1C` (stereo partly shown) [Example 93-3], the IC50 is less than 100 nM.

`CNCC(O)COc1cccc(-c2nc(-c3c(C)noc3C)cc(N3C[C@@H]4C[C@H]3CN4C(=O)OC)n2)c1` (stereo partly shown) [Example 94-1a]: the half-maximal inhibitory concentration (IC50) is less than 100 nM. The result for `CNC[C@H](O)COc1ccc(Cl)c(-c2nc(N[C@@H]3CCOC3)c(C)c(-c3c(C)noc3C)n2)c1` [Example 94-3] reads less than 100 nM; that for `CNCC(O)COc1cccc(-c2nc(-c3c(C)noc3C)cc(N3C[C@@H]4C[C@H]3CN4C(C)=O)n2)c1` (stereo partly shown) [Example 95-1a], less than 100 nM.

On to `CNC[C@H](O)COc1ccc(Cl)c(-c2nc(-c3c(C)noc3C)c(C)c(N(C)[C@H]3C[C@@](C)(OC)C3)n2)c1` [Example 95-3], for which the IC50 was less than 100 nM. The result for `CNCC(O)COc1cccc(-c2nc(NC3CCOCC3)c(F)c(-c3c(C)noc3C)n2)c1` (stereo not shown) [Example 96-1a] reads less than 100 nM; that for `CNC[C@H](O)COc1ccc(Cl)c(-c2nc(NCC3COCCO3)c(C)c(-c3c(C)noc3C)n2)c1` (stereo partly shown) [Example 96-3], less than 100 nM. With `CNCC(O)COc1cccc(-c2nc(-c3c(C)noc3C)c(F)c(N3CCN(C(=O)OC)CC3)n2)c1` (stereo not shown) [Example 97-1a], the IC50 is less than 100 nM.

As to `CNCC(O)COc1ccc(Cl)c(-c2nc(NC3CCOCC3)c(C)c(-c3c(C)nsc3C)n2)c1` (stereo not shown) [Example 97-3], the IC50 was less than 100 nM. `CNCC(O)COc1cccc(-c2nc(-c3c(C)noc3C)cc(N(CCOC)C3CCOCC3)n2)c1` (stereo not shown) [Example 98-1a]: the IC50 is less than 100 nM. As for `CNC[C@@H](O)COc1ccc(F)c(-c2nc(N[C@H]3CCN(C4CC4)C[C@H]3F)c(C)c(-c3c(C)noc3C)n2)c1` [Example 98-3], the IC50 is less than 100 nM. In the case of `CNCC(O)COc1cccc(-c2nc(NCCCN3CCCCCC3=O)cc(-c3c(C)noc3C)n2)c1` (stereo not shown) [Example 99-1a], the IC50 was less than 100 nM. Turning to `CNC[C@H](O)COc1ccc(F)c(-c2nc(N[C@H]3CCN(C4CC4)C[C@H]3F)c(C)c(-c3c(C)noc3C)n2)c1` [Example 99-3], the IC50 is less than 100 nM.
